{"source": "patent US8394832B2", "about": "“Methods and compositions using immunomodulatory compounds for the treatment of immunodeficiency disorders” (Celgene Corporation, priority 2004, dated 2013)", "format_in_all_cases": "cell-based, human", "key": {"B cells [1]": {"system": "B cells", "test": "B cell proliferation by BrdU ELISA", "settings": "3 days (FIG. 7A)", "experimental": "(§1) Human buffy coat (50 ml) was diluted with 50 ml sterile PBS (Ca^++, Mg^++ free), and mixed gently. A 25 ml aliquot of diluted buffy coat was transferred to each 50 ml centrifuge tube, and Histopaque-1077 (14 ml, #1077-1, Sigma) was gently layered into the bottom of the tube. The sample was centrifuged at 2,000 rpm for 30 min at room temperature. The interface containing mononuclear cells was transferred into 50 ml centrifuge tube, and washed once with PBS (1200 rpm, 5 min). The supernatant was discarded. Cell pellet was resuspended in Miltenyi buffer. Anti-CD19^+ microbeads were added to the suspension (10^7 cells in 80 μl of buffer, 20 μl antibody beads for 10^7 cells) and incubated for 15 min at 4° C. Cell pellet was washed once and resuspended in 1 ml Miltenyi buffer. The cell suspension was added to the magnetic column, washed with 10 ml Miltenyi buffer in the column. CD19^+ cells are released by 1 ml Miltenyi Buffer without magnetic field. CD19^+ cells were washed twice with RPMI complete medium. B cells (2×10^5) were plated in 96 well plate.\nB cells were pretreated with 1,3-dioxo-(2,6-dioxopiperidin-3-yl)-4-aminoisoindoline or 1-oxo-(2,6-dioxopiperidin-3-yl)-4-aminoisoindoline at the concentrations of 60 μM, 6 μM, 0.6 μM, 0.06 μM, 0.006 μM, and 0.0006 μM for 30 min, then were added 2 μg/ml of anti-IgM, 2 μg/ml of anti CD40, 40 ng/ml IL-4, 100 ng/ml of recombinant BAFF, and/or 0.5 μg/ml of LPS. B cells were typically treated with the immunomodulatory compound alone or in presence of one or more of above stimuli for 3 days. Stimulated B cells with or without the treatment with immunomodulatory compound were used for cell proliferation assay and cytokines analysis.\nThe crosslinking of B cell receptor antigen (“BCR”) is the primary signal for B cell activation in response to antigen, and is critical in initializing subsequent B cell activation, proliferation, and differentiation. To assess B cell activation, B cells were treated with 1,3-dioxo-(2,6-dioxopiperidin-3-yl)-4-aminoisoindoline or 1-oxo-(2,6-dioxopiperidin-3-yl)-4-aminoisoindoline in presence of stimuli for 3 days. 25 μl BrdU was added to 250 μl cell culture 24 hours before harvesting cells. B cells were dried at 60° C. after removal of labeling supernatant. 100 μl FixDenat solution was added to fix cells for 30 min at room temperature. FixDenat solution was removed by tapping plate, then 100 μl anti-BrdU-POD was added each well for 90 min, at room temperature, and the plate was washed three 3 times. 100 μl of substrate was added to plate for 10 min, then 100 μl stop solution was added. Absorbance was measured by using an ELISA microplate reader (Molecular Devices) at OD 450 nm. […]"}, "B cells [2]": {"system": "B cells", "test": "Morphological changes of activated B cells (phase contrast microscopy)", "settings": "treated with compound and anti-IgM (FIG. 7B)", "experimental": "as §1\nB cells were treated with 1,3-dioxo-(2,6-dioxopiperidin-3-yl)-4-aminoisoindoline (FIG. 6) in presence of anti IgM, anti CD40 and IL-4 for 3 days. The images were captured using phase contrast microscopy with MetaMorph software.\nMorphological changes also support IMiDs' costimulation of B cells to drive their proliferation. […]"}, "TLR 9": {"system": "TLR 9", "test": "TLR 9 expression by FACS array in B cells", "settings": "0.0006-60 μM, in combination with other stimuli, particularly IgM, 3 days (FIGS. 8A-8D)", "experimental": "as §1\nB cells were plated in 96 well plate and treated with 1,3-dioxo-(2,6-dioxopiperidin-3-yl)-4-aminoisoindoline at concentrations of 60 μM, 6 μM, 0.6 μM, 0.06 μM, 0.006 μM and 0.0006 μM in presence of stimuli for 3 days. […] B cells were resuspended in 150 μl PBS containing 1% BSA and read in FACS array instrument (BD Bioscience)."}, "TNFα": {"system": "TNFα", "test": "TNFα ELISA of treated B cells", "settings": "activated CD19+ cells (FIG. 4)", "experimental": "as §1, with “plate. […]” for “plate.”\nTNFα levels in 1,3-dioxo-(2,6-dioxopiperidin-3-yl)-4-aminoisoindoline or 1-oxo-(2,6-dioxopiperidin-3-yl)-4-aminoisoindoline treated B cells were determined using TNFα ELISA."}, "HLA-DR": {"system": "HLA-DR", "test": "FACS analysis of HLA-DR expression on B cells", "experimental": "as §1\nB cells were treated with 1 μM 1,3-dioxo-(2,6-dioxopiperidin-3-yl)-4-aminoisoindoline in presence of LPS; CD40 ligand and IL-4; or BAFF for 3 days. The suspension of B cells was washed by PBS once, and incubated with FITC conjugated anti human CD40, PE conjugated anti human CD80, or PerCP-Cy5.5 conjugated anti human HLA-DR for 30 min in the dark. B cells were subject to FACS analysis using BD FACSAria (BD biosciences).\nIn addition to the suppression of IL-4 induced proliferation, CD40+IL-4 induced HLA-DR expression was also examined. B cells were treated by 1,3-dioxo-(2,6-dioxopiperidin-3-yl)-4-aminoisoindoline with CD40L+IL-4 for 72 hours, and the cell surface expression markers CD40 and HLA-DR were measured by FACS. […] In contrast, for the B cells that were treated with BAFF, 1,3-dioxo-(2,6-dioxopiperidin-3-yl)-4-aminoisoindoline increased CD40 expression by 60% and HLA-DR expression by 86% (FIG. 11F). The data are consistent with the previous observation that immunomodulatory compounds have no effect on CD40+IL-4 signaling."}, "CD80": {"system": "CD80", "test": "FACS analysis of CD80 expression on B cells", "settings": "normal B cells, 1 μM", "experimental": "as §1\nB cells were treated with 1 μM 1,3-dioxo-(2,6-dioxopiperidin-3-yl)-4-aminoisoindoline in presence of LPS; CD40 ligand and IL-4; or BAFF for 3 days. The suspension of B cells was washed by PBS once, and incubated with FITC conjugated anti human CD40, PE conjugated anti human CD80, or PerCP-Cy5.5 conjugated anti human HLA-DR for 30 min in the dark. […]"}}, "data": [{"smiles": "Nc1cccc2c1C(=O)N(C1CCC(=O)NC1=O)C2=O", "note": "(stereo not shown) [1,3-dioxo-(2,6-dioxopiperidin-3-yl)-4-aminoisoindoline]", "values": [{"measurement": "B cell proliferation", "setting": "B cells [1]; combined with IgM (anti-IgM)", "result": "enhance"}, {"measurement": "effect on B cell activation/proliferation", "setting": "B cells [1]; compound alone", "result": "minimal effect"}, {"measurement": "morphological changes of B cells", "setting": "B cells [2]", "result": "formed large aggregates"}, {"measurement": "TLR 9 expression", "setting": "TLR 9", "result": "increase"}, {"measurement": "TNFα production in B cells", "setting": "TNFα", "result": "dose dependently enhance"}, {"measurement": "increase of HLA-DR expression", "setting": "HLA-DR; B cells treated with BAFF (FIG. 11F)", "result": 86, "unit": "%"}, {"measurement": "HLA-DR expression", "setting": "HLA-DR; B cells treated with BAFF or LPS, 1 μM, 3 days (FIG. 2B)", "result": "upregulated"}, {"measurement": "CD40+IL-4 induced HLA-DR expression", "setting": "HLA-DR; B cells with CD40L+IL-4 for 72 hours (FIG. 11E)", "result": "no enhancement"}, {"measurement": "number of B cells expressing CD80", "setting": "CD80; CD40 ligand and IL-4, 3 days (FIG. 1B)", "result": "increased"}, {"measurement": "CD80 expression", "setting": "CD80; in the presence of CD40 ligand and IL-4, 3 days (FIG. 1A)", "result": "increased"}]}]}
